One test concerns the target T1, PDGFRβ (Homo sapiens, UniProt P09619).
T1 construct: expressed in transfected cells; host or cells: porcine aorta endothelial (PAE) cells
In words: PAE-PDGFRβ phosphorylation in PAE-PDGFRB cells assay. Type of test: cell-based. The settings on record: PAE cells overexpressing human PDGFRβ, PDGF-BB stimulated; read-out: PAE PDGFR autophos IC50. On the procedure:
This assay determines the ability of a test compound to inhibit the autophosphorylation of PDGFRβ in porcine aorta endothelial (PAE)-PDGFRβ cells. PAE cells that overexpress human PDGFRβ were used in this assay. The cells were cultured in Ham's F12 media supplemented with 10% fetal bovine serum (FBS) and 400 ug/ml G418. Twenty thousands cells were seeded in each well of a 96-well plate in 50 μL of growth media and allowed to attach for 6 hours at 37° C. Cells were then exposed to the starvation media (Ham's F12 media supplemented with 0.1% FBS) for 16 hours. After the starvation period was over, 10 μL of test agent in 5% DMSO in starvation media were added to the test wells and 10 μL of the vehicle (5% DMSO in starvation media) were added into the control wells. The final DMSO concentration in each well was 0.5%. Plates were incubated at 37° C. for 1 hour and the cells were then stimulated with 1 μg/mL PDGF-BB (R & D System) in the presence of 2 mM Na3VO4 for 8 minutes. The cells were washed once with 1 mm Na3VO4 in HBSS and lysed by adding 50 μL per well of lysis buffer. One hundred μL of dilution buffer were then added to each well and the diluted cell lysate was transferred to a 96-well goat ant-rabbit coated plate (Pierce), which was pre-coated with Rabbit anti Human PDGFRβ antibody (Santa Cruz). The plates were incubated at room temperature for 2 hours and washed seven times with 1% Tween 20 in PBS. HRP-PY20 (Santa Cruz) was diluted and added to the plate for a 30-minute incubation. Plates were then washed again and TMB peroxidase substrate (Kirkegaard & Perry) was added for a 10-minute incubation. One hundred μL of 0.09 N H2SO4 was added into each well of the 96-well plate to stop the reaction. Phosphorylation status was assessed by spectrophotometer reading at 450 nm. IC50 values were calculated by curve fitting using a four-parameter analysis.

Test [1] deals with human umbilical vein endothelial cells (HUVEC). In words: HUVEC+VEGF proliferation assay. Type of test: cell-based. The settings on record: Homo sapiens, HUVEC, 72 h, VEGF 6 ng/mL, MTT. On the procedure:
This assay determines the ability of a test compound to inhibit the growth factor-stimulated proliferation of human umbilical vein endothelial cells (“HUVEC”). HUVEC cells (passage 3-4, Clonetics, Corp.) were thawed into EGM2 culture medium (Clonetics Corp) in T75 flasks. Fresh EGM2 medium was added to the flasks 24 hours later. Four or five days later, cells were exposed to another culture medium (F12K medium supplemented with 10% fetal bovine serum (FBS), 60 μg/mL endothelial cell growth supplement (ECGS), and 0.1 mg/mL heparin). Exponentially-growing HUVEC cells were used in experiments thereafter. Ten to twelve thousand HUVEC cells were plated in 96-well dishes in 100 μl of rich, culture medium (described above). The cells were allowed to attach for 24 hours in this medium. The medium was then removed by aspiration and 105 μl of starvation media (F12K+1% FBS) was added to each well. After 24 hours, 15 μl of test agent dissolved in 1% DMSO in starvation medium or this vehicle alone was added into each treatment well; the final DMSO concentration was 0.1%. One hour later, 30 μl of VEGF (30 ng/mL) in starvation media was added to all wells except those containing untreated controls; the final VEGF concentration was 6 ng/mL. Cellular proliferation was quantified 72 hours later by MTT dye reduction, at which time cells were exposed for 4 hours MTT (Promega Corp.). Dye reduction was stopped by addition of a stop solution (Promega Corp.) and absorbance at 595 nm was determined on a 96-well spectrophotometer plate reader.

Test [2] addresses T2, unphosphorylated VEGF-R2Δ50 (FLVK) (Homo sapiens, UniProt P35968, DEL940-989/E990V).
T2 construct: VEGF-R2Δ50 contains residues 806-939 and 990-1171; made in house; host or cells: baculovirus/insect cell system
In words: VEGF-R2 coupled spectrophotometric assay, unphosphorylated construct (FLVK). The class given is biochemical. The settings on record: for inhibition at 0.05 µM: percent inhibition at 50 nM. An excerpt: This construct determines the ability of a test compound to inhibit tyrosine kinase activity. A construct (VEGF-R2Δ50) of the cytosolic domain of human vascular endothelial growth factor receptor 2 (VEGF-R2) lacking the 50 central residues of the 68 residues of the kinase insert domain was expressed in a baculovirus/insect cell system. Of the 1356 residues of full-length VEGF-R2, VEGF-R2Δ50 contains residues 806-939 and 990-1171, and also one point mutation (E990V) within the kinase insert domain relative to wild-type VEGF-R2. Autophosphorylation of the purified construct was performed by incubation of the enzyme at a concentration of 4 μM in the presence of 3 mM ATP and 40 mM MgCl2 in 100 mM HEPES, pH 7.5, containing 5% glycerol and 5 mM DTT, at 4° C. for 2 h. […] See Parast et al., Biochemistry, 37, 16788-16801 (1998).
The production of ADP from ATP that accompanies phosphoryl transfer was coupled to oxidation of NADH using phosphoenolpyruvate (PEP) and a system having pyruvate kinase (PK) and lactic dehydrogenase (LDH). The oxidation of NADH was monitored by following the decrease of absorbance at 340 nm ([…]=6.22 cm^−1 mM^−1) using a Beckman DU 650 spectrophotometer. Assay conditions for phosphorylated VEGF-R2Δ50 (indicated as FLVK-P in the tables below) were the following: 1 mM PEP; 250 μM NADH; 50 units of LDH/mL; 20 units of PK/mL; 5 mM DTT; […]; 1 mM ATP; and 25 mM MgCl2 in 200 mM HEPES, pH 7.5. Assay conditions for unphosphorylated VEGF-R2Δ50 (indicated as FLVK in the tables) were the following: 1 mM PEP; 250 μM NADH; 50 units of LDH/mL; 20 units of PK/mL; 5 mM DTT; […]; 3 mM ATP; and 60 mM MgCl2 and 2 mM MnCl2 in 200 mM HEPES, pH 7.5. Assays were initiated with 5 to 40 nM of enzyme. Ki values were determined by measuring enzyme activity in the presence of varying concentrations of test compounds. The percent inhibition at 50 nm (% inhibition@ 50 nm) was determined by linear least-squares regression analysis of absorbance as a function of time. The binding inhibitions were fitted to equation as described by Morrison. The data were analyzed using Enzyme Kinetic and Kaleidagraph software.

Values joined by “and” are separate entries in the source; they are usually repeats but may differ in a detail not shown here. Equal values may be shown once.

The IC50 is the point on the concentration scale where inhibition reaches its midpoint. Broadly, the Ki is the dissociation constant of the complex between target and ligand, obtained from inhibition or displacement. A lower Ki goes with higher affinity. The inhibition is the relative decrease from the control value, in per cent. Low values mean little suppression, high ones strong suppression.

T1 sequence (P09619 33-1106): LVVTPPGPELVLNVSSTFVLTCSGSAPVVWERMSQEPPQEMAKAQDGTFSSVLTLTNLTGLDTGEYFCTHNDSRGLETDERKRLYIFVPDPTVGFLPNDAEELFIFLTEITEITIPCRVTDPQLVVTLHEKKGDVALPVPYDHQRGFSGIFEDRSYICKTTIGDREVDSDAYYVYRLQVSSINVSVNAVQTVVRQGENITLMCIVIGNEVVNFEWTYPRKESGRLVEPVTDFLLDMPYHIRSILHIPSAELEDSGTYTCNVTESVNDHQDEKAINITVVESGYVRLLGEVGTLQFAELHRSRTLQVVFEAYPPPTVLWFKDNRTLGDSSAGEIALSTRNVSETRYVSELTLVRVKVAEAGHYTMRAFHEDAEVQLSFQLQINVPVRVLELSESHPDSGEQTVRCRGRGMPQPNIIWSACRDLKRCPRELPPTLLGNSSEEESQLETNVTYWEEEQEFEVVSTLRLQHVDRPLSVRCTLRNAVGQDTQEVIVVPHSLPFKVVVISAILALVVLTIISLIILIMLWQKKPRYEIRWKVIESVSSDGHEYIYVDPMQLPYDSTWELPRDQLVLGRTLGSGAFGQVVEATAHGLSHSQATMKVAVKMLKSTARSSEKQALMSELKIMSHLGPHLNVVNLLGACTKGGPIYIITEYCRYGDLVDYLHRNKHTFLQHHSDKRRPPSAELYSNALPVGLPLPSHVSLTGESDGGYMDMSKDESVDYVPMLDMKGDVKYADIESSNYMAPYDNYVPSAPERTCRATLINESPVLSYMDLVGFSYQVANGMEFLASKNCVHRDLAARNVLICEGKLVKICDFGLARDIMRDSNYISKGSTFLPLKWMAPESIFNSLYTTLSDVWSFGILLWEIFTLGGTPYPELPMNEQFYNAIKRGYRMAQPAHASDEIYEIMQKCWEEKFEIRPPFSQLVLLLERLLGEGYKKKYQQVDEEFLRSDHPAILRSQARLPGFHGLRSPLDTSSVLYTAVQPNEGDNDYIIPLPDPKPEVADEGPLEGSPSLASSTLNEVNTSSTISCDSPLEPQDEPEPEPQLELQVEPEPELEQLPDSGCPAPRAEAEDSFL
T2 sequence (P35968 with tags, fused parts or gaps DEL940-989/E990V limits assumed): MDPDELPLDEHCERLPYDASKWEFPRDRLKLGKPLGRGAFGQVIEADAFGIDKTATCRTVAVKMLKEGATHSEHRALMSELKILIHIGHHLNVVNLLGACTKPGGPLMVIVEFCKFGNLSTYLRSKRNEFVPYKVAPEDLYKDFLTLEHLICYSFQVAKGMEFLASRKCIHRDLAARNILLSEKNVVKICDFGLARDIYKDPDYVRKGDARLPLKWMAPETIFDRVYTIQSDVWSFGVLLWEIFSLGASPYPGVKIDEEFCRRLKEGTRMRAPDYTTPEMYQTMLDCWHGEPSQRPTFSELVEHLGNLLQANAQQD

With `CNC(=O)n1c(C)cc2cc(Nc3ccnc4cc(C(=O)N5CC[C@H](OC)C5)sc34)ccc21` [Example 1g, 5-[2-(3S-Methoxy-pyrrolidine-1-carbonyl)-thieno[3,2-b]pyridin-7-ylamino]-2-methyl-indole-1-carboxylic acid methylamide], the IC50 at PDGFRβ was 95 nM and 152 nM; in test [1] it was 1 nM.
As to `C#CCNC(=O)n1c(C)cc2cc(Nc3ccnc4cc(C(=O)N5CC[C@H](O)C5)sc34)ccc21` [Example 1j, 5-[2-(3S-Hydroxy-pyrrolidine-1-carbonyl)-thieno[3,2-b]pyridin-7-ylamino]-2-methyl-indole-1-carboxylic acid prop-2-ynylamide], in test [2], the affinity, expressed as Ki, was 0.72 nM and 0.05 µM produced 96% inhibition. Also, in test [1], the IC50 worked out at 0.149 nM.
As for `CNC(=O)n1c(C)cc2cc(Nc3ccnc4cc(C(=O)N5C[C@H](OC)[C@@H](OC)C5)sc34)ccc21` [Example 1r, 5-[2-(3S,4S-Dimethoxy-pyrrolidine-1-carbonyl)-thieno[3,2-b]pyridin-7-ylamino]-2-methyl-indole-1-carboxylic acid methylamide], the IC50 on PDGFRβ was 155 nM and 120 nM. In test [2], the Ki was 0.64 nM and testing at 0.05 µM gave an inhibition of 93%. For the same molecule, the IC50 in test [1] is 0.301 nM.
In test [2], `Cc1cc2cc(Nc3ccnc4cc(C(=O)N5C[C@H](O)C[C@H]5C(C)(C)O)sc34)ccc2n1C(=O)NC1CC1` [Example 3e] came in with a Ki of 2.1 nM and an inhibition at 0.05 µM of 87%. Also, in test [1], the IC50 was found to be 4.9 nM.
For `CNC(=O)n1c(C)cc2cc(Nc3cccc4cc(C(=O)N5C[C@H](O)C[C@H]5CO)sc34)ccc21` [Example 3i, 5-[2-((2S,4R)-4-Hydroxy-2-hydroxymethyl-pyrrolidine-1-carbonyl)-benzo[b]thiophen-7-ylamino]-2-methyl-indole-1-carboxylic acid methylamide] the same measures were 4.17 nM, 74% and 5.5 nM.
Consider `CO[C@H]1CCN(C(=O)c2cc3nccc(Oc4ccc5c(c4)cc(C)n5C(=O)NCC#CC4CC4)c3s2)C1` [Example 4i, 5-[2-(3S-Methoxy-pyrrolidine-1-carbonyl)-thieno[3,2-b]pyridin-7-yloxy]-2-methyl-indole-1-carboxylic acid (3-cyclopropyl-prop-2-ynyl)-amide], for which the IC50 at PDGFRβ is 5.5 nM. Also, in test [2], affinity was put at a Ki of 1.56 nM and the inhibition at 0.05 µM came to 97%. The IC50 in test [1] was 0.569 nM.
Consider `CO[C@@H]1CCN(C(=O)c2cc3nccc(Oc4ccc5c(c4)cc(C)n5C(=O)NCC#CC4CC4)c3s2)C1` [Example 4m, 5-[2-(3R-Methoxy-pyrrolidine-1-carbonyl)-thieno[3,2-b]pyridin-7-yloxy]-2-methyl-indole-1-carboxylic acid (3-cyclopropyl-prop-2-ynyl)-amide], for which the IC50 worked out at 3.8 nM at PDGFRβ and 0.37 nM in test [1]. Affinity in test [2] was put at a Ki of 0.271 nM. The molecule further yielded an inhibition at 0.05 µM in test [2] of 99%.
Regarding `CNC(=O)n1c(C)cc2c(F)c(Oc3ccnc4cc(C(=O)N5CCC[C@H]5COC)sc34)ccc21` [Example 5a, 4-Fluoro-5-[2-(2S-methoxymethyl-pyrrolidine-1-carbonyl)-thieno[3,2-b]pyridin-7-yloxy]-2-methyl-indole-1-carboxylic acid methylamide], the IC50 at PDGFRβ was 3.8 nM. In test [2], the Ki is 0.16 nM and the inhibition at 0.05 µM stood at 99%. Besides, the IC50 in test [1] worked out at 0.14 nM.
Turning to `CNC(=O)n1c(C)cc2c(F)c(Oc3ccnc4cc(C(=O)N5CC[C@H](O)C5)sc34)ccc21` [Example 5i, 4-Fluoro-5-[2-(3S-hydroxy-pyrrolidine-1-carbonyl)-thieno[3,2-b]pyridin-7-yloxy]-2-methyl-indole-1-carboxylic acid methylamide], in test [2], the Ki came to 0.525 nM and the inhibition at 0.05 µM was determined as 97%. The IC50 in test [1] amounted to 0.11 nM.
As to `C#CCNC(=O)n1c(C)c(Cl)c2c(F)c(Oc3ccnc4cc(C(=O)N5CC[C@H](OC)C5)sc34)ccc21` [Example 6a, 3-Chloro-4-fluoro-5-[2-(3S-methoxy-pyrrolidine-1-carbonyl)-thieno[3,2-b]pyridin-7-yloxy]-2-methyl-indole-1-carboxylic acid prop-2-ynylamide], the IC50 at PDGFRβ turned out to be 28.6 nM. Moreover, in test [2], affinity was put at a Ki of 0.428 nM and the inhibition at 0.05 µM came out at 98%. The 50% inhibitory concentration (IC50) in test [1] was 0.427 nM.
As for `Cc1cc2cc(Oc3ccnc4cc(C(=O)N5CC[C@@H](N(C)C)C5)sc34)ccc2n1C(=O)NCCCO` [Example 8i, 5-[(2-{[(3R)-3-(Dimethylamino)pyrrolidin-1-yl]carbonyl}thieno[3,2-b]pyridin-7-yl)oxy]-N-(3-hydroxypropyl)-2-methyl-1H-indole-1-carboxamide], at PDGFRβ, the IC50 was 26 nM and 34 nM. In test [2], this molecule gave a Ki of 0.477 nM and an inhibition at 0.05 µM of 99%. In addition, in test [1], the IC50 is 0.17 nM.
For the molecule `CNC(=O)n1c(C)cc2cc(Oc3ccnc4cc(C(=O)N5CCC5)sc34)ccc21` [Example 8m, 5-[2-(Azetidine-1-carbonyl)-thieno[3,2-b]pyridin-7-yloxy]-2-methyl-indole-1-carboxylic acid methylamide], the IC50 on PDGFRβ was found to be 4.5 nM; in test [1], 0.084 nM. In test [2], the Ki came to 0.004 nM. The molecule further showed an inhibition at 0.05 µM in test [2] of 99%.
On to `CO[C@H]1CCN(C(=O)c2cc3nccc(Oc4ccc5c(c4)cc(C)n5C(=O)NCC#N)c3s2)C1` [Example 9f, 5-[2-(3S-Methoxy-pyrrolidine-1-carbonyl)-thieno[3,2-b]pyridin-7-yloxy]-2-methyl-indole-1-carboxylic acid cyanomethyl-amide], for which the IC50 at PDGFRβ is 13 nM. In test [2], this molecule returned a Ki of 0.667 nM and an inhibition at 0.05 µM of 84%. For the same molecule, the IC50 in test [1] turned out to be 0.68 nM.

Values taken from patent publication US6833456B2, “Indolyl-urea derivatives of thienopyridines useful as antiangiogenic agents, and methods for their use” (Agouron Pharmaceuticals, Inc., priority 2002, dated 2004).
